Reference: patent US20040002130A1, “Disruption of PQS synthesis using precursor analogs” (priority 2002, published 2004)

What was measured:
[1] = test system: P. aeruginosa strain PAO1; test: Growth of cultures in the presence of methyl anthranilate; type: cell-based; conditions: 0, 0.25, 0.5, 1.0, and 1.5 mM methyl anthranilate
Method: P. aeruginosa strain PAO1 was grown in the presence of increasing amounts of methyl anthranilate, and culture supernatants were extracted with ethyl acetate and separated on TLC plates. PQS was visualized under long-wave UV light and photographed to quantify PQS densitometrically. The amount of PQS present in the culture supernatant decreased as the concentration of methyl anthranilated increased, although the growth of the cultures was not affected by the presence of methyl anthranilate at the concentrations used in these experiments (0, 0.25, 0.5, 1.0, and 1.5 mM methyl anthranilate, with approximately 30% PQS being produced at 1.5 mM methyl anthranilate as compared to wild type bacateria).

PQS production = test: Effect of methyl anthranilate on PQS production (TLC of culture supernatant extracts, densitometry); type: cell-based, P. aeruginosa strain PAO1
Method: Bacteria from frozen stocks were grown overnight on PTSB agar plates (Ohman, et al. (1980) J. Bacteriol. 142:836-842) at 37° C. Isolated colonies were used to inoculate 10 ml of PTSB which was then incubated for 18 hr at 37° C. with vigorous shaking. Cultures were diluted 1:100 into fresh media and grown for 24 hr as above. A 400 μl aliquot of each culture was mixed with 800 μl of acidified ethyl acetate (Pesci, et al. (1999) Proc. Natl. Acad. Sci. USA 96:11229-11234), vortexed vigorously for 30 sec, then centrifuged for 10 min at 16,000×g. The organic phase was transferred to a fresh tube, and the aqueous phase was re-extracted with an additional 800 μl of solvent. The organic phases were combined, dried to completion and the solute was dissolved in 200 μl of a 1:1 mix of acidified ethyl acetate:acetonitrile. An amount of extract derived from 5 μl of culture was loaded onto the TLC plate. TLC was performed with a silica gel 60 F254 TLC plate (EM Science) that had been soaked in 5% KH2PO4 and activated at 100° C. for one hour. […]
P. aeruginosa strain PAO1 was grown in the presence of increasing amounts of methyl anthranilate, and culture supernatants were extracted with ethyl acetate and separated on TLC plates. PQS was visualized under long-wave UV light and photographed to quantify PQS densitometrically. […]

COC(=O)c1ccccc1N [methyl anthranilate]
growth of the cultures [1]: not affected
PQS being produced as compared to wild type bacteria (PQS production; 1.5 mM methyl anthranilate, strain PAO1 culture supernatant, densitometry of TLC under long-wave UV): approximately 30%
amount of PQS present in the culture supernatant (PQS production; increasing methyl anthranilate concentration (0, 0.25, 0.5, 1.0, and 1.5 mM), strain PAO1): decreased
